Results taken from US4294833A, “Substituted 4-hydroxy-isophthalic acid picolylamides having a pharmaceutical activity in thromboembolic disorders” (Societa Italo-Britannica, priority 1977, dated 1981).

Legend:
[1] = system: platelet aggregation induced by ADP; assay: Platelet aggregation inhibitory activity in vivo (Born aggregometer), ADP-induced; set-up: species or system New Zealand rabbits; conditions: Oryctolagus cuniculus, Platelet, ip, dose for 50% inhibition of ADP-induced aggregation curve; rabbits, intraperitoneal, blood 2, 4 and 6 hours after injection; read-out: platelet antiaggregant activity (AAP), DI50, ADP
Description: (§1) Determination of the platelet aggregation inhibitory activity in vivo
(§2) The activity of the above described compounds as platelet antiaggregant was tested in vivo on rabbits, by the Born aggregometer. The inhibition of the aggregation curve induced by ADP and thrombin was assessed with different drug concentrations according to the platelet reactivity. New Zealand rabbits which had been held fasting for 12 hours with water ad libitum, were anaesthetized with Nembutal in a dose of 35 mg/kg intramuscolarly. The blood was withdrawn from the carotidal arthery, before (control) and 2, 4, and 6 hours after the intraperitoneal injection of the compounds under examination (at the dose indicated below). The blood samples were taken up in a 3.8% aqueous solution of sodium citrate in a ratio 10:1 and thereupon centrifuged at 1500 r.p.m. for 10 minutes, for obtaining a PRP (platelet rich plasma). A portion of such a plasma was thereupon centrifuged at 8000 r.p.m. for 10 minutes, for obtaining a PPP (platelet lean plasma) which was used for zeroing the measuring apparatus.
(§3) From the results of said experiments, there was determined the dose of each product in mg/kg body weight able to induce a 50% inhibition of the aggregation curve (DI50) after treatment, referred to the curve obtained by the same control plasma before treatment.
(§4) In tables I and II are further indicated for each compound the method of preparation; the melting point PF in °C; the platelet antiaggregant activity (AAP) expressed in terms of DI50 in mg/kg, referred to ADP and thrombin respectively; the antithrombin activity (AT) in %; the anticoagulant activity (AC) in %; the fibrinolytic activity (FL) in %; the acute toxicity (LD50) in mice, intraperitoneally, in mg/kg, as previously defined.

[2] = system: platelet aggregation induced by thrombin; assay: Platelet aggregation inhibitory activity in vivo (Born aggregometer), thrombin-induced; set-up: species or system New Zealand rabbits; conditions: Oryctolagus cuniculus, Platelet, ip, dose for 50% inhibition of thrombin-induced aggregation curve; rabbits, intraperitoneal, blood 2, 4 and 6 hours after injection; read-out: platelet antiaggregant activity (AAP), DI50, Thrombin
Description: as §1, §2, §3, §4

[3] = system: thrombin-induced coagulation of platelet rich plasma; assay: Antithrombin activity on PRP, Hartert's thromboelastograph; assay type: in vivo, New Zealand rabbits; conditions: Oryctolagus cuniculus, Platelet, ip, percent decrease of index ma/[r+k] vs before treatment; 20 mg/kg intraperitoneal, rabbits
Description: Determination of the antithrombin activity
The antithrombin activity on the PRP (platelet rich plasma) obtained following the above described method was assessed by Hartert's thromboelastograph (Hellige model). The coagulation was induced by adding to 0.25 ml of plasma 0.06 ml of a thrombin solution (Roche Topostasin® per os) at 60 units*, pH 7.4**. The antithrombin activity was assessed in terms of a percent decrease of the index (ma/[r+k]) which was calculated from the thromboelastograph diagram, wherein r is the reaction time, k is the speed of the coagulum formation and ma is the maximum spread of the tong, after an intraperitoneal treatment with a dose of 20 mg/kg of each compound under examination, referred to the same index obtained before the treatment (control).
as §4

[4] = system: CaCl2-induced plasma coagulation; assay: Anticoagulant activity on PRP, Hartert's thromboelastograph; assay type: in vivo, New Zealand rabbits; conditions: Oryctolagus cuniculus, ip, percent increase of total time for coagulum formation (r+k) vs before treatment; 25 mg/kg intraperitoneal, rabbits; read-out: anticoagulant activity (AC)
Description: Determination of the anticoagulant activity
The anticoagulant activity was also assessed on PRP of animals treated as described in the preceding methods, by using again Hartert's thromboelastograph method.
The plasma coagulation was induced by adding to 0.25 ml PRP a 1.29% solution of CaCl2.
The anticoagulant effect was determined as a percent increase of the total time for the coagulum formation (the index r+k can be obtained from the thromboelastograph diagram) in a plasma after treatment, referred to the same index obtained before the treatment (control). Again the dose level was 25 mg/kg for each compound under examination, intraperitoneally.
as §4

blood coagulum = assay: Fibrinolytic activity, Fearnley method (lysis of blood coagulum in toto); assay type: in vivo; conditions: Oryctolagus cuniculus, ip, 0.5 h, percent decrease of coagulum weight after 30 minutes at 37° C.; 25 mg/kg intraperitoneal, rabbits; read-out: fibrinolytic activity (FL)
Description: Determination of the fibrinolytic activity
The determination of the fibrinolytic activity was made following the Fearnley method for the lysis of the blood coagulum in toto.
0.2 ml of blood were withdrawn from the marginal vein of the ear of rabbits treated in the same way as the previously described tests, before and after an intraperitoneal injection of the compounds under test at a dose level of 25 mg/kg for each compound.
The blood samples were placed in test tubes containing 1.7 ml of phosphate buffer at pH 7.4 and 0.1 ml of thrombin (Roche Topostasin ® per os) at 50 units NIH/ml, and maintained in an ice bath. The test tubes were maintained at said temperature for 30 minutes and thereupon were transferred to a temperature controlled water bath at 37° C.
The fibrinolytic activity was determined as a percent decrease of the coagulum weight, measured after incubation for 30 minutes at 37° C.
as §4

[5] = Acute toxicity, intraperitoneal; conditions: mouse, in vivo, ip, male Swiss mice, intraperitoneal, 7 days observation; preliminary, by graphic interpolation; read-out: acute toxicity (LD50 / DL50)
Description: The acute toxicity limit was determined intraperitoneally on male Swiss mice, weighing 20±2 g, held fasting for 18 hours with water ad libitum.
The animals were maintained under observation for 7 days of treatment, by examining the general symptomatology and noting the death sequency. The preliminary DL50 in mg/kg body weight was calculated by graphic interpolation of the results as obtained.
as §4

| Compound | ED50 [1] [mg/kg] | ED50 [2] [mg/kg] | inhibition in vivo at 20 mg/kg [3] [%] | change in vivo at 25 mg/kg [4] [%] | fibrinolytic activity (percent decrease of coagulum weight) at 25 mg/kg (blood coagulum) [%] | LD50 at 168 h [5] [mg/kg] |
| --- | --- | --- | --- | --- | --- | --- |
| CCCCOc1c(Cl)cc(C(=O)NCc2cccnc2)cc1C(=O)NCc1cccnc1 [Example 26] | 43.7 | 30.2 | 33.5 | 22.2 | 28.4 | 205 |
| CCN(Cc1cccnc1)C(=O)c1ccc(OC)c(C(=O)N(CC)Cc2cccnc2)c1 [Example 40] | 60.2 | 42.3 | 28.9 | 13.4 | 20.6 | 605 |
| C=C(C)COc1ccc(C(=O)N(CCC)Cc2ccncc2)cc1C(=O)N(CCC)Cc1ccncc1 [Example 70] | 30.6 | 20.8 | 48.2 | 18.9 | 39.3 | 360 |
| COc1cc(C(=O)NCc2cccnc2)cc(C(=O)NCc2cccnc2)c1OC1CC1 [Example 18] | 29.4 | 22 | 33.4 | 20.1 | 28.6 | 228 |
| CCC(CC)Oc1c(Cl)cc(C(=O)NCc2cccnc2)cc1C(=O)NCc1cccnc1 [Example 30] | 42.2 | 29.5 | 27.9 | 22.3 | 25.8 | 198 |
| C=CCOc1ccc(C(=O)NCc2cccnc2)cc1C(=O)NCc1cccnc1 [Example 7] | 36.3 | 19.2 | 51.5 | 14.5 | 44.7 | 374 |
| COc1cc(C(=O)NCc2cccnc2)cc(C(=O)NCc2cccnc2)c1OC1CCCC1 [Example 20] | 35.6 | 21.4 | 32.6 | 12.9 | 27.9 | 375 |
| CCCCN(Cc1cccnc1)C(=O)c1ccc(OC)c(C(=O)N(CCCC)Cc2cccnc2)c1 [Example 42] | 66.4 | 47.2 | 28.7 | 14.5 | 21.7 | 623 |
| C=CCOc1c(Cl)cc(C(=O)NCc2cccnc2)cc1C(=O)NCc1cccnc1 [Example 25] | 59.5 | 35.4 | 40.6 | 15.5 | 25.9 | 184 |
| COc1cc(C(=O)NCc2cccnc2)cc(C(=O)NCc2cccnc2)c1OC1CCCCC1 [Example 21] | 35.8 | 24.5 | 32.5 | 12.5 | 28.3 | 378 |
| CC(C)CCOc1c(Cl)cc(C(=O)NCc2cccnc2)cc1C(=O)NCc1cccnc1 [Example 27] | 40 | 27.9 | 35.1 | 23.8 | 28.8 | 195 |
| CC(C)(C)COc1c(C(=O)NCc2cccnc2)cc(C(=O)NCc2cccnc2)cc1[N+](=O)[O-] [Example 35] | 37.1 | 29.7 | 25.4 | 12.6 | 20.2 | 194 |
| CC(C)CCOc1ccc(C(=O)NCc2cccnc2)cc1C(=O)NCc1cccnc1 [Example 13] | 48.3 | 27.1 | 28.5 | 24.5 | 21.9 | 173 |
| COc1c(Cl)cc(C(=O)N(Cc2ccncc2)C(C)C)cc1C(=O)N(Cc1ccncc1)C(C)C [Example 71] | 28.1 | 19.6 | 53.9 | 25.6 | 47.7 | 384 |
| O=C(NCc1cccnc1)c1cc(Cl)c(O)c(C(=O)NCc2cccnc2)c1 [Example 32] | 50.2 | 33.6 | 22.2 | 11.8 | 17.3 | 425 |
| C=CCCCOc1ccc(C(=O)NCc2cccnc2)cc1C(=O)NCc1cccnc1 [Example 9] | 36.2 | 23.2 | 49.9 | 14.5 | 40.3 | 375 |
| CC(C)(C)COc1c(Cl)cc(C(=O)NCc2cccnc2)cc1C(=O)NCc1cccnc1 [Example 28] | 45.3 | 31 | 27.9 | 19.6 | 25.5 | 215 |
